Ends that are not written are not given here. Peptide text beside a SMILES is read from it.
Columns and labels:
[1] = target: T1, CRF2R (Homo sapiens, UniProt Q13324); assay: CRF2R agonist activity (EC50, Emax), called comparative CRF binding; type: cell-based; settings: read-out: CRF2R EC50
T1 sequence (Q13324 1-411): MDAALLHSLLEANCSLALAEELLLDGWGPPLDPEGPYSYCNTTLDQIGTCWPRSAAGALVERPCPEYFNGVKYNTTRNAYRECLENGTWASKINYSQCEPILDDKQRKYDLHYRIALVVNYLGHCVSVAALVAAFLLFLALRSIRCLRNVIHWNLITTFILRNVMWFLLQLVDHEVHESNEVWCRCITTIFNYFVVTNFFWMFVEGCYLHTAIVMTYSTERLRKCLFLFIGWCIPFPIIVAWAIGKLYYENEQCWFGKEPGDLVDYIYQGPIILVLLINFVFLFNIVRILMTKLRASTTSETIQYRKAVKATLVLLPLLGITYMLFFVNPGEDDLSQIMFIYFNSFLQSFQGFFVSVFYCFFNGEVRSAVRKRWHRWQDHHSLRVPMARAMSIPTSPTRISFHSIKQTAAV
How it was run: (§1)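 Recombinant CRF1R or CRF2R cells were exposed to peptide. Reporter expression linked to cAMP response element was then quantitated, relative to vehicle control.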

[2] = target: T2, CRF1R (Homo sapiens, UniProt P34998); assay: CRF1R agonist activity (EC50, Emax), called comparative CRF binding; type: cell-based; settings: read-out: CRF1R EC50
T2 sequence (P34998 24-415): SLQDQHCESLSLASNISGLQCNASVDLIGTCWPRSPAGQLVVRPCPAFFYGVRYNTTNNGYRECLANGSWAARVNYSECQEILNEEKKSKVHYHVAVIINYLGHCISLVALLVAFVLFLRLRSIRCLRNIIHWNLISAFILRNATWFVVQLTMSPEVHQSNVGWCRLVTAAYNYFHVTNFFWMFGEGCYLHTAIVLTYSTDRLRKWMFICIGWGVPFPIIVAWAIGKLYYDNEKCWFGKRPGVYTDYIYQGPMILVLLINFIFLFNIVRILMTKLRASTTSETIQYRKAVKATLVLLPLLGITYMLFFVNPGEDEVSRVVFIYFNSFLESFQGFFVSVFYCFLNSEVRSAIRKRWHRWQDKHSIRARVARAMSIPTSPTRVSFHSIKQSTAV
How it was run: as §1

| Compound | EC50 [1] | EC50 [2] |
| --- | --- | --- |
| CC[C@H](C)[C@H](NC(=O)[C@H](C)NC(=O)[C@H](CC(N)=O)NC(=O)[C@H](CCC(N)=O)NC(=O)[C@H](CCC(=O)O)NC(=O)[C@H](C)NC(=O)[C@H](CCCNC(=N)N)NC(=O)[C@H](CCC(=O)O)NC(=O)[C@H](CCCNC(=N)N)NC(=O)[C@H](CCC(N)=O)NC(=O)[C@H](CO)NC(=O)[C@H](CCC(N)=O)NC(=O)[C@@H](NC(=O)[C@H](CCCNC(=N)N)NC(=O)[C@H](C)NC(=O)[C@H](CC(C)C)NC(=O)[C@H](CCC(=O)O)NC(=O)[C@H](CC(C)C)NC(=O)[C@H](CC(C)C)NC(=O)[C@@H](NC(=O)[C@H](CCCNC(=N)N)NC(=O)[C@H](CC(C)C)NC(=O)[C@H](CC(C)C)NC(=O)[C@H](Cc1c[nH]cn1)NC(=O)[C@H](CC(C)C)NC(=O)[C@@H]1CCCN1C(=O)[C@H](CC(C)C)NC(=O)[C@H](CC(=O)O)NC(=O)[C@@H](NC(=O)[C@H](CO)NC(=O)[C@H](CC(C)C)NC(=O)[C@H](CO)NC(=O)[C@@H]1CCCN1C(=O)[C@H](CC(N)=O)NC(=O)[C@@H](N)CC(=O)O)[C@@H](C)CC)[C@@H](C)O)[C@@H](C)O)C(=O)N[C@H](C(=O)N[C@@H](Cc1ccccc1)C(=O)N[C@@H](C)C(=O)N[C@@H](CO)C(=O)N[C@H](C(N)=O)C(C)C)[C@@H](C)CC [compound 179] (H-DNPSLSIDLPLHLLRTLLELARTQSQRERAEQNAIIFASV-NH2; N-terminus assumed) | 10.2 nM | 477 nM |
| CC[C@H](C)[C@H](N)C(=O)N[C@H](C(=O)N[C@@H](CC(C)C)C(=O)N[C@@H](CO)C(=O)N[C@@H](CC(C)C)C(=O)N[C@@H](CC(=O)O)C(=O)N[C@H](C(=O)N1CCC[C@H]1C(=O)N[C@H](C(=O)NCC(=O)N[C@@H](CC(C)C)C(=O)N[C@@H](CC(C)C)C(=O)N[C@@H](CCC(N)=O)C(=O)N[C@H](C(=O)N[C@@H](CC(C)C)C(=O)N[C@@H](CC(C)C)C(=O)N[C@@H](CCC(=O)O)C(=O)N[C@@H](CCC(N)=O)C(=O)N[C@@H](CCC(=O)O)C(=O)N[C@@H](CCCCN)C(=O)N[C@@H](CCC(N)=O)C(=O)N[C@@H](CCC(=O)O)C(=O)N[C@@H](CCCCN)C(=O)N[C@@H](CCC(=O)O)C(=O)N[C@@H](CCCCN)C(=O)N[C@@H](CCC(N)=O)C(=O)N[C@@H](CCC(N)=O)C(=O)N[C@@H](C)C(=O)N[C@H](C(=O)N[C@H](C(=O)N[C@@H](CC(N)=O)C(=O)N[C@@H](C)C(=O)N[C@@H](CCCNC(=N)N)C(=O)N[C@H](C(=O)N[C@@H](CC(C)C)C(=O)N[C@@H](C)C(=O)N[C@@H](CCCNC(=N)N)C(=O)N[C@H](C(N)=O)C(C)C)[C@@H](C)CC)[C@@H](C)O)[C@@H](C)O)[C@@H](C)CC)[C@@H](C)CC)C(C)C)C(C)C [compound 167] (H-IVLSLDVPIGLLQILLEQEKQEKEKQQATTNARILARV-NH2; N-terminus assumed) | 13 nM | ≥ 1000 nM |
| CC[C@H](C)[C@H](NC(=O)[C@H](C)NC(=O)[C@H](CC(N)=O)NC(=O)[C@H](CCC(N)=O)NC(=O)[C@H](CCC(=O)O)NC(=O)[C@H](C)NC(=O)[C@H](CCCNC(=N)N)NC(=O)[C@H](CCC(=O)O)NC(=O)[C@H](CCCNC(=N)N)NC(=O)[C@H](CCC(N)=O)NC(=O)[C@H](CO)NC(=O)[C@H](CCC(N)=O)NC(=O)[C@@H](NC(=O)[C@H](CCCNC(=N)N)NC(=O)[C@H](C)NC(=O)[C@H](CC(C)C)NC(=O)[C@H](CCC(=O)O)NC(=O)[C@H](CC(C)C)NC(=O)[C@H](CC(C)C)NC(=O)[C@@H](NC(=O)[C@H](CCCNC(=N)N)NC(=O)[C@H](CC(C)C)NC(=O)[C@H](CC(C)C)NC(=O)[C@H](Cc1ccc(O)cc1)NC(=O)[C@H](Cc1ccc(O)cc1)NC(=O)[C@@H]1CCCN1C(=O)[C@H](CC(C)C)NC(=O)[C@H](CC(=O)O)NC(=O)[C@@H](NC(=O)[C@H](CO)NC(=O)[C@H](CC(C)C)NC(=O)[C@H](CO)NC(=O)[C@@H]1CCCN1C(=O)[C@H](CC(N)=O)NC(=O)[C@@H](N)CC(=O)O)[C@@H](C)CC)[C@@H](C)O)[C@@H](C)O)C(=O)N[C@H](C(=O)N[C@@H](Cc1ccccc1)C(=O)N[C@@H](C)C(=O)N[C@@H](CO)C(=O)N[C@H](C(N)=O)C(C)C)[C@@H](C)CC [compound 263] (H-DNPSLSIDLPYYLLRTLLELARTQSQRERAEQNAIIFASV-NH2; N-terminus assumed) | 36.2 nM | 802 nM |
| CC[C@H](C)[C@H](N)C(=O)N[C@H](C(=O)N[C@@H](CC(C)C)C(=O)N[C@@H](CO)C(=O)N[C@@H](CC(C)C)C(=O)N[C@@H](CC(=O)O)C(=O)N[C@H](C(=O)N1CCC[C@H]1C(=O)N[C@H](C(=O)NCC(=O)N[C@@H](CC(C)C)C(=O)N[C@@H](CC(C)C)C(=O)N[C@@H](CCC(N)=O)C(=O)N[C@H](C(=O)N[C@@H](CC(C)C)C(=O)N[C@@H](CC(C)C)C(=O)N[C@@H](CCC(=O)O)C(=O)N[C@@H](CCC(N)=O)C(=O)N[C@@H](C)C(=O)N[C@@H](CCCNC(=N)N)C(=O)N[C@@H](C)C(=O)N[C@@H](CCC(=O)O)C(=O)N[C@@H](C)C(=O)N[C@@H](C)C(=O)N[C@@H](CCCNC(=N)N)C(=O)N[C@@H](CCC(=O)O)C(=O)N[C@@H](CCC(N)=O)C(=O)N[C@@H](C)C(=O)N[C@H](C(=O)N[C@H](C(=O)N[C@@H](CC(N)=O)C(=O)N[C@@H](C)C(=O)N[C@@H](CCCNC(=N)N)C(=O)N[C@H](C(=O)N[C@@H](CC(C)C)C(=O)N[C@@H](C)C(=O)N[C@@H](CCCNC(=N)N)C(=O)N[C@H](C(N)=O)C(C)C)[C@@H](C)CC)[C@@H](C)O)[C@@H](C)O)[C@@H](C)CC)[C@@H](C)CC)C(C)C)C(C)C [compound 122] (H-IVLSLDVPIGLLQILLEQARAEAAREQATTNARILARV-NH2; N-terminus assumed) | 3.31 nM | ≥ 1000 nM |
| NDDPPISIDLPFFLLRNMIEMARIENEREQAGLNAKYLAEV-NH2 [compound 264] | ≥ 100 nM | 704 nM |
| CC[C@H](C)[C@H](N)C(=O)N[C@H](C(=O)N[C@@H](CC(C)C)C(=O)N[C@@H](CO)C(=O)N[C@@H](CC(C)C)C(=O)N[C@@H](CC(=O)O)C(=O)N[C@H](C(=O)N1CCC[C@H]1C(=O)N[C@H](C(=O)NCC(=O)N[C@@H](CC(C)C)C(=O)N[C@@H](CC(C)C)C(=O)N[C@@H](CCC(N)=O)C(=O)N[C@H](C(=O)N[C@@H](CC(C)C)C(=O)N[C@@H](CC(C)C)C(=O)N[C@@H](CCC(=O)O)C(=O)N[C@@H](CC(C)C)C(=O)N[C@@H](C)C(=O)N[C@@H](CCCNC(=N)N)C(=O)N[C@H](C(=O)N[C@@H](CCC(N)=O)C(=O)N[C@@H](CO)C(=O)N[C@@H](CCC(N)=O)C(=O)N[C@@H](CCCNC(=N)N)C(=O)N[C@@H](CCC(=O)O)C(=O)N[C@@H](CCCNC(=N)N)C(=O)N[C@@H](C)C(=O)N[C@@H](CCC(=O)O)C(=O)N[C@@H](CCC(N)=O)C(=O)N[C@@H](CC(N)=O)C(=O)N[C@@H](CCCNC(=N)N)C(=O)N[C@H](C(=O)N[C@H](C(=O)N[C@@H](Cc1ccccc1)C(=O)N[C@@H](CC(=O)O)C(=O)N[C@@H](CO)C(=O)N[C@H](C(N)=O)C(C)C)[C@@H](C)CC)[C@@H](C)CC)[C@@H](C)O)[C@@H](C)O)[C@@H](C)CC)C(C)C)C(C)C [compound 160] (H-IVLSLDVPIGLLQTLLELARTQSQRERAEQNRIIFDSV-NH2; N-terminus assumed) | 9.15 nM | > 100 nM |

— US7192924B2, “Corticotropin releasing factor 2 receptor agonists” (priority 2002, dated 2007)
